Results: patent US12460207B2, “Inhibiting APE2 expression in a subject treated with a drug agent that causes increased APE2 expression” (The Cleveland Clinic Foundation, priority 2021, dated 2025)
d = 2'-deoxy (DNA); m = 2'-O-methyl

Columns and labels:
APE2 [1] = test: Western blot of kidney protein expression in platinum drug-treated mice: APE2; format: in vivo, mouse; details: for APE2 expression in kidney cells: 40 mg/kg single intraperitoneal dose
Method: (§1) Ten-week-old wild-type C57BL/6J mice weighing 25-28 g were purchased from the Jackson Laboratory. […] An identical volume of saline (0.9% NaCl) was administered intraperitoneally to control mice.
(§2) Total protein samples were isolated with RIPA buffer, fractionated on 4%-12% Bis-Tris polyacrylamide gels (Thermo Fisher Scientific), and electroblotted onto PVDF membranes (Millipore). Membranes were blocked with 5% nonfat milk and incubated overnight with rabbit anti-APE2 polyclonal antibody (Bioss, #bs-6587R), rabbit anti-APE1 polyclonal antibody (Abnova, #H00000328-D02), mouse anti-LIG3 monoclonal antibody (Santa Cruz Biotechnology, #sc-56089), rabbit anti-MRE11 monoclonal antibody (Cell Signaling Technology, #4847), rabbit anti-CtIP polyclonal antibody (Bethyl Laboratories, #300-488A), or goat anti-β-actin polyclonal antibody (Santa Cruz Biotechnology, #sc-1615) overnight at 4° C. Membranes were then washed and incubated with HRP-linked anti-rabbit IgG secondary antibody (Cell Signaling Technology, #7074) or HRP-linked anti-mouse IgG secondary antibody (Cell Signaling Technology, #7076S). […] Detection by chemiluminescence was carried out by means of a SuperSignal West Femto Maximum Sensitivity Substrate kit (Thermo Fisher Scientific) with β-actin as a loading control.

APE1 = test: Western blot of kidney protein expression in cisplatin-treated mice: APE1; format: in vivo, mouse; details: cisplatin 15 mg/kg, 3 days after treatment
Method: as §1, §2

LIG3 = test: Western blot of kidney protein expression in cisplatin-treated mice: LIG3; format: in vivo, mouse; details: cisplatin 15 mg/kg, 3 days after treatment
Method: as §1, §2

MRE11 = test: Western blot of kidney protein expression in cisplatin-treated mice: MRE11; format: in vivo, mouse; details: cisplatin 15 mg/kg, 3 days after treatment
Method: as §1, §2

CTIP = test: Western blot of kidney protein expression in cisplatin-treated mice: CTIP; format: in vivo, mouse; details: cisplatin 15 mg/kg, 3 days after treatment
Method: as §1, §2

PCNA = test: Western blot of kidney protein expression in cisplatin-treated mice: PCNA; format: in vivo, mouse; details: cisplatin 15 mg/kg, 3 days after treatment
APE2 [2] = test: IHC staining for APE2 in kidney biopsies of C-AKI patients; format: in vivo, human; details: two patients with C-AKI versus normal kidney biopsies
Method: Kidney specimens were obtained from healthy donors and from cisplatin-induced AKI patients in accordance with Cleveland Clinic Foundation Institutional Review Board approval requirements, and written informed consent was obtained in compliance with the Helsinki. Formalin-fixed paraffin-embedded tissue sections were de-paraffinized and then incubated with rabbit anti-APE2 polyclonal antibody (Bioss, bs-6587R), rabbit anti-cleaved caspase-3monoclonal antibody (Cell Signaling Technology, #9664S), rabbit anti-MYH9 antibody (GeneTex GTX113236), or rabbit anti-phosphor-histone H2A.X(Ser139) polyclonal antibody (Cell Signaling Technology, #2577) at 4° C. overnight. After incubation with horseradish peroxidase (HRP)-conjugated goat anti-rabbit secondary antibody, signal was detected using a DAB Substrate kit (Abcam, ab64238) according the manufacturer's instructions. Images were obtained by means of a phase-contrast microscope (Leica DM2000 LED) and a digital camera (Leica DMC 2900).

APE2 [3] = test: Immunofluorescence of APE2 subcellular localization in HK2 cells after cisplatin; format: cell-based, human; details: HK2 cells treated with cisplatin
Method: (§3) HEK293T and HK2 cells were purchased from the ATCC. Mouse anti-Prominin-1 MicroBeads (130-092-333, Miltenyi Biotec) were used to isolate PTCs from APE2LSL/− CreERT2+/− mice, Cre-ERT2+/− mice, C57B6 mice, and APE2 KO mice. The primary PTCs were cultured in DMEM/Nutrient Mixture F-12 (DMEM/F12) containing 10% FBS, 100 U/mL penicillin, and 100 μg/mL streptomycin. HEK293T and HK2 cells were routinely genotyped using the Human Cell Line Genotyping System (Promega) and were used within their 6 times passage. Mouse PTCs were genotyped using the primer for transgenic mice and were used within their 3 times passage. All cell lines were used Mycoplasma tested negative.
(§4) Immunofluorescence staining was performed as described previously (20). The slides of HK2 cells were incubated sequentially with rabbit anti-APE2 antibody (GeneTex), goat anti-rabbit Alexa Fluor 488-conjugated secondary antibody (Abcam), mouse anti-MYH9 antibody (GeneTex), goat anti-mouse Alexa Fluor 647-conjugated secondary antibody (Abcam), and rabbit anti-COXIV antibody Alexa Fluor […]-conjugated antibody (Santa Cruz Biotechnology). […]

APE2 [4] = test: Immunofluorescence of APE2 subcellular localization in primary mouse PTCs after cisplatin; format: cell-based; details: primary mouse PTCs treated with cisplatin
Method: as §3, §4

[5] = tested on: wild-type (WT) and APE2 KO mice; details: mouse, in vivo, 15 mg/kg
Method: as §1
(§5) APE2 conditional transgenic mice were generated by inserting a transcription-translation STOP cassette flanked by LoxP sites (LSL) at the start of the APE2 locus. An FRT-mediated recombination ColA1 3′ untranslated region locus was used first to generate APE2LSL mice. The STOP cassette prevents expression of the APE2 gene. To remove the STOP cassette and activate APE2 expression in vivo, the APE2LSL mice were mated with Rosa26-Cre-Estrogen Receptor-T2 (CreERT2+/−) mice (18; #8463, The Jackson Laboratory), in which the ERT moiety retains Cre recombinase activity in the cytoplasm until tamoxifen administration releases this block and promotes recombination of genomic LoxP sites. Three-week-old APE2LSL/+CreERT2+/− mice and CreERT2+/− mice were injected intraperitoneally with 10 mg/kg 4-OH-tamoxifen for 3 consecutive days. Creatinine and EPO were measured using mouse creatinine (Crystal Chem) and EPO (R&D Systems) ELISA kits. We used heterozygous male (APE2−/Y) mice (12) bearing a mutated APE2 allele on the X chromosome, in which a genomic region from the 3′-region of its intron 5 to the 5′-region in exon 6 was replaced by a neo cassette by crossing heterozygous APE2 female (APE2−/+) mice with wild-type C57BL/6 mice. […] Using this breeding strategy, there is the potential risk and uncertainty of interference with the germline DNA in the male and female APE2 knockout progeny because APE2 has already been knocked out in the male parent (APE2−/Y) and because the function of APE2 is to be responsible for DNA damage repair (13). All mice were of C57B6 genetic background. All experiments involving animals were pre-approved by the Cleveland Clinic IACUC (Institutional Animal Care and Use Committee).
(§6) Mouse kidney biopsy specimens were submerged in 2.5% EM grade glutaraldehyde in 2.5% glutaraldehyde/4% paraformaldehyde in 0.2 mol/L sodium cacodylate buffer (pH 7.4) at 4° C. immediately after sectioning and fixed at 4° C. overnight. After washing three times for 5 minutes in sodium cacodylate buffer (0.2 mol/L, pH 7.3), kidney fragments were fixed in 1% aqueous osmium tetroxide for 60 minutes at 4° C., then washed twice for 5 minutes with sodium cacodylate buffer and rinsed once with maleate buffer (pH 5.1, 5 minutes). After changing to 1% uranyl acetate in maleate buffer, the samples were stained for 60 minutes; the uranyl acetate was removed. The samples were then washed three times for 5 minutes with maleate buffer and then dehydrated with ascending grades of ethanol, and finally embedded in Epon resin (Electron Microscopy Science). […]

primary PTCs = test: Oxygen consumption (Seahorse Cell Mito Stress) of PTCs from cisplatin-treated mice; format: cell-based, mouse; details: PTCs of cisplatin-treated APE2 KO mice versus WT
Method: as §3
The functional activity of PTC mitochondria was measured by using a Seahorse XF24 Analyzer and a Seahorse XF Cell Mito Stress Test Assay (Agilent Technologies). Mitochondrial functionality was examined by direct measurement of the OCR of cells according to the manufacturer's instructions. Briefly, 8×10^4 PTCs were seeded into 24-well plates and allowed to attach overnight. The cells were subjected to OCR detection by sequential injections of oligomycin, carbonyl cyanide p-trifluoromethoxyphenylhydrazone (FCCP), and a combination of rotenone and antimycin A. Basal OCR=measured OCR level before the injection of oligomycin. Adenosine triphosphate (ATP) synthesis-linked OCR (ATP-linked)=basal OCR−OCR following oligomycin injection. […]

[6] = within 24 hours of administration; cited from earlier work
[7] = tested on: CreERT2+/−, APE2LSL/− mice; test: APE2-ASO treatment of transgenic CreERT2+/−, APE2LSL/− mice (APE2 AKI mouse model); format: in vivo; details: for kidney function: treated 4 weeks, once per week
Description: as §5, §6

APE2 [8] = test: PK/PD study in C57B6 mice, APE2 expression by western blot; format: in vivo, mouse
Method: Further optimization of the ASO drug. Potential ASO toxicities fall into two categories: (i) hybridization-dependent toxicities due to on- or off-target events, and (ii) hybridization-independent toxicities, such as excessive immunostimulation due to non-antisense effects of the ASO. We performed the PK/PD study using C57B6 mice. We IP injected six weeks old male mice with 20 mg/kg APE2-ASO and checked the APE2 expression by western blot analysis. We found the APE2 could be knock down in two days and restored in 4 days after injection (FIG. 9).

[9] = 20 mg/kg IP, six weeks old male C57B6 mice

## N.N.O=C([O-])C1(C(=O)[O-])CCC1.[Pt+2] [carboplatin]
APE2 [1]
  APE2 expression in kidney cells: slight upregulation

## N.N.[Cl][Pt][Cl] [cisplatin]
APE2 [1]; cisplatin 15 mg/kg single intraperitoneal dose, kidney collected 3 days after treatment
  APE2 expression in kidney: the most highly upregulated protein
APE1
  APE1 expression in kidney: slightly upregulated
LIG3
  LIG3 expression in kidney: slightly upregulated
MRE11
  MRE11 expression in kidney: slightly upregulated
CTIP
  CTIP expression in kidney: slightly upregulated
PCNA
  PCNA expression in kidney: downregulated
APE2 [2]
  APE2 protein in PTCs by IHC: dramatically upregulated
APE2 [3]
  APE2 subcellular localization: enriched in the cytoplasm, especially within mitochondria
APE2 [4]
  APE2 subcellular localization: enriched in the cytoplasm, especially within mitochondria
[5]
  kidney damage: only minor kidney damage
  kidney weight: decreased kidney weight
  mitochondrial fragmentation (EM): less mitochondrial fragmentation
  renal damage: most severe
Primary PTCs
  OCR in PTCs: significantly increased
[6]
  cisplatin excreted via the urine: 50%-80%

## O=C1[O][Pt]2([NH][C@@H]3CCCC[C@H]3[NH]2)[O]C1=O [oxaliplatin]
APE2 [1]
  APE2 expression in kidney cells: slight upregulation

## mU*mG*mU*C*C*T*T*A*C*A*G*A*A*mG*mG*mU (UGUCCTTACAGAAGGU; sugars from the 5' end m3 d10 m3, all phosphorothioate, methylation of C not given here) [APE2-ASO-3]
[7]; compared with saline treated controls, P<0.01
  plasma creatine level: significantly reduced
[7]; compared with vehicle treated mice, age of eight weeks
  mitochondrial morphology (EM): remained relatively normal
[7]
  kidney function: protected
[7]; listed as APE2-ASO gapmer drug
  kidney function: protected kidney function
APE2 [8]; [9]
  time to APE2 knock down after injection: two
  time to restored APE2 expression after injection: 4 days
APE2 [8]; wild type C57B6 mice
  APE2 level: knock down
